Test results from article PMC12715794, “Comparative Characterization of Oxidative Enzymes for Arabinoxylan and Protein Cross-Linking via Ferulic Acid and Tyrosine in Model Systems” (Journal of Agricultural and Food Chemistry, 2025).
Where a name gives a salt, the structure may show the parent alone. Read-outs that look alike come from different tables or passages of the source.

Assays:
[1] = test system: T1, TvL; laccase from Trametes versicolor; conditions: at pH and temperature optima; McIlvaine buffer
T1 construct: gene LCC2

[2] = target: T2, AnG; glucose oxidase from Aspergillus niger (Aspergillus niger, UniProt P13006); test: ABTS-HrP-coupled spectrophotometric assay, […] nm; type: biochemical; conditions: 16 mM glucose, 1 mM ABTS, excess HrP (0.7 mg/mL); McIlvaine buffer
T2 construct: gene gox

[3] = test system: T1, TvL; laccase from Trametes versicolor; conditions: at pH and temperature optima; McIlvaine buffer; enzyme alone
[4] = test system: T1, TvL; laccase from Trametes versicolor; test: HTyr-MBTH spectrophotometric assay, […] nm; type: biochemical; conditions: at pH and temperature optima; McIlvaine buffer; excess MBTH, 2% DMF
[5] = test system: T3, AbT; tyrosinase from Agaricus bisporus; test: HTyr-MBTH spectrophotometric assay, […] nm; type: biochemical; conditions: at pH and temperature optima; McIlvaine buffer; excess MBTH, 2% DMF
T3 construct: gene PPO3

[6] = test system: T3, AbT; tyrosinase from Agaricus bisporus; test: spectrophotometric, product formation at […] nm; type: biochemical; conditions: at pH and temperature optima; McIlvaine buffer; enzyme alone

T2 sequence (P13006 23-605): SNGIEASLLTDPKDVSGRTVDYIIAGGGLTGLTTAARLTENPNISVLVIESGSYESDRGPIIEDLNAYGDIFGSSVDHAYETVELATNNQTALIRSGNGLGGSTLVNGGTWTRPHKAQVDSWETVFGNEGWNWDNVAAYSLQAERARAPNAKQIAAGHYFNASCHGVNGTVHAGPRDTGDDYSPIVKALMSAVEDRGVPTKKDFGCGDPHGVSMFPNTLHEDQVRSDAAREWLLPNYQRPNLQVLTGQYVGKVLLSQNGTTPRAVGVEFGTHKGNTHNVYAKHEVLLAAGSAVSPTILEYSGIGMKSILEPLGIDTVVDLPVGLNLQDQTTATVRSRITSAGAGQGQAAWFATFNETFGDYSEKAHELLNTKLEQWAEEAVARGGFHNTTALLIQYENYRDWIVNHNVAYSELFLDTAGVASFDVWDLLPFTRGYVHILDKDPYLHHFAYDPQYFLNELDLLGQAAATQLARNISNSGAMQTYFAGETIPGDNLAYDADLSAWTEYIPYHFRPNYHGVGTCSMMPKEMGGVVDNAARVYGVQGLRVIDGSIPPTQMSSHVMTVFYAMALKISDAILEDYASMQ

## CCn1c(=NN=c2sc3cc(S(=O)(=O)O)ccc3n2CC)sc2cc(S(=O)(=O)O)ccc21 [ABTS, 2,2′-azino-bis(3-ethylbenzothiazoline-6-sulfonic acid) diammonium salt]
[1]
  Km: 36 µM

## OC[C@H]1OC(O)[C@H](O)[C@@H](O)[C@@H]1O (stereo partly drawn) [D-glucose]
[2]
  ABTS-HrP-coupled spectrophotometric assay, 415 nm: For AnG, glucose as a substrate was converted to H2O2

## COc1cc(/C=C/C(=O)O)ccc1O [FA, trans-ferulic acid]
[3]
  Km: 57 µM

## OCCc1ccc(O)c(O)c1 [HTyr, hydroxytyrosol]
[4]
  Km: 73 µM
[5]
  Km: 44 µM

## N[C@@H](Cc1ccc(O)cc1)C(=O)O [Y, L-tyrosine]
[6]
  Km: 504 µM
